System: OF1 mice
Test: maximal electroshock test (MES Test)
Format: in vivo, mouse
Conditions: p.o., 1 h, @ 20 (mg/kg)
Description: Compounds of the invention were tested in OF1 mice using the maximal electroshock test (MES Test) described in detail by Schmutz et al., Naunyn-Schmiedeberg's Arch Pharmacol 1990, 342, 61-66. Briefly, generalized tonic-clonic convulsions of the hind extremities were induced by passing electrical current through temporal electrodes (50 Hz, 18 mA, 0.2 s). […] 30 mg/kg carbamazepine was used as a positive control; mice were classified as protected by a compound If the duration of the seizure lasted only 3 second or less. Five mice were used for each treatment condition and the percentage of protected mice was used as readout (i.e. a compound could give 0%, 20%, 40%, 60%, 80% or 100% protection). […]
ED50 values (ED: effective dose) were calculated using GraphPad Prism, v4.02.

SMILES	MES-Test (1 h, po) protection
Cn1nccc1-c1cc2c(=O)n(NS(C)(=O)=O)c(=O)[nH]c2cc1C(C)(F)F [Compound C-15, N-[7-(1,1-difluoro-ethyl)-6-(2-methyl-2H-pyrazol-3-yl)-2,4-dioxo-1,4-dihydro-2H-quinazolin-3-yl]-methanesulfonamide]	80% @ 20

Same assay, conditions: p.o., 1 h, @ 25 (mg/kg)

SMILES	MES-Test (1 h, po) protection
COCCn1nccc1-c1cc2c(=O)n(NS(C)(=O)=O)c(=O)[nH]c2cc1C(C)C [Compound C-1, N-{7-Isopropyl-6-[2-(2-methoxy-ethyl)-2H-pyrazol-3-yl]-2,4-dioxo-1,4-dihydro-2H-quinazolin-3-yl}-methanesulfonamide]	40% @ 25

Same assay, conditions: p.o., 1 h, @ 50 (mg/kg)

SMILES	MES-Test (1 h, po) protection
CCc1cc2[nH]c(=O)n(NS(C)(=O)=O)c(=O)c2cc1-c1ccnn1C(C)C [Compound C-6, N-[7-Ethyl-6-(2-isopropyl-2H-pyrazol-3-yl)-2,4-dioxo-1,4-dihydro-2H-quinazolin-3-yl]-methanesulfonamide]	20% @ 50
CC(C)c1cc2[nH]c(=O)n(NS(C)(=O)=O)c(=O)c2cc1-c1ccnn1C(C)C [Compound C-8, N-[7-Isopropyl-6-(2-isopropyl-2H-pyrazol-3-yl)-2,4-dioxo-1,4-dihydro-2H-quinazolin-3-yl]-methanesulfonamide]	40% @ 50

Same assay, conditions: p.o., pre-treatment time 1 h

SMILES	MES-Test (1 h, po) ED50
CS(=O)(=O)Nn1c(=O)[nH]c2cc(C(F)(F)F)c(C3CCCO3)cc2c1=O [B-2 (R), N-[2,4-Dioxo-6-(tetrahydro-furan-2-yl)-7-trifluoromethyl-1,4-dihydro-2H-quinazolin-3-yl]-methanesulfonamide]	12.8 mg/kg
CS(=O)(=O)Nn1c(=O)[nH]c2cc(C(F)(F)F)c(C3CCCO3)cc2c1=O [B-2 (S), N-[2,4-Dioxo-6-(tetrahydro-furan-2-yl)-7-trifluoromethyl-1,4-dihydro-2H-quinazolin-3-yl]-methanesulfonamide]	33.2 mg/kg

System: mouse
Test: Oral bioavailability: in vivo orally active (audiogenic mouse test and/or MES test)
Conditions: not given
Description: The oral bioavailability was tested using the audiogenic mouse test (Audiogenic seizures, R. L. Collins; Chapter 14, pages: 347-372. In: Experimental Models of Epilepsy; By: Pupura, Penry, Tower, Woodbury, Walter, Raven Press, New York, 1972. Standard Book Number: 0-911216-26-X) and/or the MES test.

SMILES	In vivo orally active
CC(O)c1cc2c(=O)n(NS(C)(=O)=O)c(=O)[nH]c2cc1C(F)(F)F (stereo not drawn) [Compound A-1, N-[6-(1-Hydroxy-ethyl)-2,4-dioxo-7-trifluoromethyl-1,4-dihydro-2H-quinazolin-3-yl]-methanesulfonamide]	Yes
COC(C)c1cc2c(=O)n(NS(C)(=O)=O)c(=O)[nH]c2cc1C(F)(F)F (stereo not drawn) [Compound A-2, N-[6-(1-Methoxy-ethyl)-2,4-dioxo-7-trifluoromethyl-1,4-dihydro-2H-quinazolin-3-yl]-methanesulfonamide]	Yes
CCC(O)c1cc2c(=O)n(NS(C)(=O)=O)c(=O)[nH]c2cc1C(F)(F)F (stereo not drawn) [Compound A-3, N-[6-(1-Hydroxy-propyl)-2,4-dioxo-7-trifluoromethyl-1,4-dihydro-2H-quinazolin-3-yl]-methanesulfonamide]	Yes
CC(C)OC(C)c1cc2c(=O)n(NS(C)(=O)=O)c(=O)[nH]c2cc1C(F)(F)F (stereo not drawn) [Compound A-4, N-[6-(1-Isopropoxy-ethyl)-2,4-dioxo-7-trifluoromethyl-1,4-dihydro-2H-quinazolin-3-yl]-methanesulfonamide]	Yes
CCOC(C)c1cc2c(=O)n(NS(C)(=O)=O)c(=O)[nH]c2cc1C(F)(F)F (stereo not drawn) [Compound A-5, N-[6-(1-Ethoxy-ethyl)-2,4-dioxo-7-trifluoromethyl-1,4-dihydro-2H-quinazolin-3-yl]methanesulfonamide]	yes
CCCOC(CC)c1cc2c(=O)n(NS(C)(=O)=O)c(=O)[nH]c2cc1C(F)(F)F (stereo not drawn) [Compound A-6, N-[2,4-Dioxo-6-(1-propoxy-propyl)-7-trifluoromethyl-1,4-dihydro-2H-quinazolin-3-yl]-methanesulfonamide]	Yes
CCC(OC(C)C)c1cc2c(=O)n(NS(C)(=O)=O)c(=O)[nH]c2cc1C(F)(F)F (stereo not drawn) [Compound A-7, N-[6-(1-isopropoxy-propyl)-2,4-dioxo-7-trifluoromethyl-1,4-dihydro-2H-quinazolin-3-yl]-methanesulfonamide]	Yes
CCOC(CC)c1cc2c(=O)n(NS(C)(=O)=O)c(=O)[nH]c2cc1C(F)(F)F (stereo not drawn) [Compound A-13, N-[6-(1-Ethoxy-propyl)-2,4-dioxo-7-trifluoromethyl-1,4-dihydro-2H-quinazolin-3-yl]-methanesulfonamide]	Yes
CC(OC1CCCC1)c1cc2c(=O)n(NS(C)(=O)=O)c(=O)[nH]c2cc1C(F)(F)F (stereo not drawn) [Compound A-14, N-[6-(1-Cyclopentyloxy-ethyl)-2,4-dioxo-7-trifluoromethyl-1,4-dihydro-2H-quinazolin-3-yl]-methanesulfonamide]	yes
CCCC(O)c1cc2c(=O)n(NS(C)(=O)=O)c(=O)[nH]c2cc1C(F)(F)F (stereo not drawn) [Compound A-15, N-[6-(1-Hydroxy-butyl)-2,4-dioxo-7-trifluoromethyl-1,4-dihydro-2H-quinazolin-3-yl]-methanesulfonamide]	Yes
COCCC(O)c1cc2c(=O)n(NS(C)(=O)=O)c(=O)[nH]c2cc1C(F)(F)F (stereo not drawn) [Compound A-18, N-[6-(1-Hydroxy-3-methoxy-propyl)-2,4-dioxo-7-trifluoromethyl-1,4-dihydro-2H-quinazolin-3-yl]-methanesulfonamide]	Yes
CS(=O)(=O)Nn1c(=O)[nH]c2cc(C(F)(F)F)c(C3CCCO3)cc2c1=O (stereo not drawn) [Compound B-2, N-[2,4-Dioxo-6-(tetrahydro-furan-2-yl)-7-trifluoromethyl-1,4-dihydro-2H-quinazolin-3-yl]-methanesulfonamide]	Yes
COCCn1nccc1-c1cc2c(=O)n(NS(C)(=O)=O)c(=O)[nH]c2cc1C(C)C [Compound C-1, N-{7-Isopropyl-6-[2-(2-methoxy-ethyl)-2H-pyrazol-3-yl]-2,4-dioxo-1,4-dihydro-2H-quinazolin-3-yl}-methanesulfonamide]	yes
CC(C)n1nccc1-c1cc2c(=O)n(NS(C)(=O)=O)c(=O)[nH]c2cc1C(F)(F)F [Compound C-2, N-[6-(2-Isopropyl-2H-pyrazol-3-yl)-2,4-dioxo-7-trifluoromethyl-1,4-dihydro-2H-quinazolin-3-yl]-methanesulfonamide]	Yes
CC(C)n1nccc1-c1cc2c(=O)n(NS(C)(=O)=O)c(=O)[nH]c2cc1CF [Compound C-3, N-[7-Fluoromethyl-6-(2-isopropyl-2H-pyrazol-3-yl)-2,4-dioxo-1,4-dihydro-2H-quinazolin-3-yl]-methanesulfonamide]	Yes
COCCn1nccc1-c1cc2c(=O)n(NS(C)(=O)=O)c(=O)[nH]c2cc1C(F)(F)F [Compound C-4, N-{6-[2-(2-Methoxy-ethyl)-2H-pyrazol-3-yl]-2,4-dioxo-7-trifluoromethyl-1,4-dihydro-2H-quinazolin-3-yl}-methanesulfonamide]	Yes
CS(=O)(=O)Nn1c(=O)[nH]c2cc(C(F)(F)F)c(-c3ccnn3O)cc2c1=O [Compound C-5, N-[6-(2-Hydroxy-2H-pyrazol-3-yl)-2,4-dioxo-7-trifluoromethyl-1,4-dihydro-2H-quinazolin-3-yl]-methanesulfonamide]	Yes
CCc1cc2[nH]c(=O)n(NS(C)(=O)=O)c(=O)c2cc1-c1ccnn1C(C)C [Compound C-6, N-[7-Ethyl-6-(2-isopropyl-2H-pyrazol-3-yl)-2,4-dioxo-1,4-dihydro-2H-quinazolin-3-yl]-methanesulfonamide]	yes
CC(C)c1cc2[nH]c(=O)n(NS(C)(=O)=O)c(=O)c2cc1-c1ccnn1C(C)C [Compound C-8, N-[7-Isopropyl-6-(2-isopropyl-2H-pyrazol-3-yl)-2,4-dioxo-1,4-dihydro-2H-quinazolin-3-yl]-methanesulfonamide]	yes
Cn1nccc1-c1cc2c(=O)n(NS(C)(=O)=O)c(=O)[nH]c2cc1C(F)F [Compound C-9, N-[7-Difluoromethyl-6-(2-methyl-2H-pyrazol-3-yl)-2,4-dioxo-1,4-dihydro-2H-quinazolin-3-yl]-methanesulfonamide]	Yes
CC(C)n1nccc1-c1cc2c(=O)n(NS(C)(=O)=O)c(=O)[nH]c2cc1C(F)F [Compound C-10, N-[7-Difluoromethyl-6-(2-isopropyl-2H-pyrazol-3-yl)-2,4-dioxo-1,4-dihydro-2H-quinazolin-3-yl]-methanesulfonamide]	Yes
CCc1cc2[nH]c(=O)n(NS(C)(=O)=O)c(=O)c2cc1-c1ccnn1C [Compound C-11, N-[7-Ethyl-6-(2-methyl-2H-pyrazol-3-yl)-2,4-dioxo-1,4-dihydro-2H-quinazolin-3-yl]-methanesulfonamide]	Yes
CCc1cc2[nH]c(=O)n(NS(C)(=O)=O)c(=O)c2cc1-c1ccnn1CC [Compound C-12, N-[7-Ethyl-6-(2-ethyl-2H-pyrazol-3-yl)-2,4-dioxo-1,4-dihydro-2H-quinazolin-3-yl]-methanesulfonamide]	Yes
Cn1nccc1-c1cc2c(=O)n(NS(C)(=O)=O)c(=O)[nH]c2cc1C(C)(F)F [Compound C-15, N-[7-(1,1-difluoro-ethyl)-6-(2-methyl-2H-pyrazol-3-yl)-2,4-dioxo-1,4-dihydro-2H-quinazolin-3-yl]-methanesulfonamide]	Yes
CC(C)n1nccc1-c1cc2c(=O)n(NS(C)(=O)=O)c(=O)[nH]c2cc1C(C)(F)F [Compound C-16, N-[7-(1,1-difluoro-ethyl)-6-(2-isopropyl-2H-pyrazol-3-yl)-2,4-dioxo-1,4-dihydro-2H-quinazolin-3-yl]-methanesulfonamide]	Yes
CC(F)c1cc2[nH]c(=O)n(NS(C)(=O)=O)c(=O)c2cc1-c1ccnn1C(C)C (stereo not drawn) [Compound C-17, N-[7-(1-fluoro-ethyl)-6-(2-isopropyl-2H-pyrazol-3-yl)-2,4-dioxo-1,4-dihydro-2H-quinazolin-3-yl]-methanesulfonamide]	Yes
Cn1nccc1-c1cc2c(=O)n(NS(C)(=O)=O)c(=O)[nH]c2cc1C(F)(F)F [Compound C-18, N-[6-(2-Methyl-2H-pyrazol-3-yl)-2,4-dioxo-7-trifluoromethyl-1,4-dihydro-2H-quinazolin-3-yl]-methanesulfonamide]	Yes
